Key:
[1] = target: Casein kinase I isoform alpha (Homo sapiens) (UniProt P48729); experiment: In vitro percent inhibition of Casein kinase 1 alpha at 10 uM concentration of compound dissolved in 100% DMSO using 5''-[gamma-33P]-triphosphate
[2] = target: Hepatocyte growth factor receptor (Homo sapiens) (UniProt P08581); experiment: In vitro percent inhibition of Met proto-oncogene tyrosine kinase at 10 uM concentration of compound dissolved in 100% DMSO using 5''-[gamma-33P]-triphosphate
[3] = target: Proto-oncogene tyrosine-protein kinase Src (Homo sapiens) (UniProt P12931); experiment: In vitro percent inhibition of c-Src tyrosine kinase at 10 uM concentration of compound dissolved in 100% DMSO using 5''-[gamma-33P]-triphosphate
[4] = test system: SRPK1 (Homo sapiens); experiment: In vitro inhibition of SR protein kinase 1 by compound dissolved in 100% DMSO using 5''-[gamma-33P]-triphosphate; n.a. - not active
[5] = target: Tyrosine-protein kinase Lck (Homo sapiens) (UniProt P06239); experiment: In vitro percent inhibition of p56 Lck tyrosine kinase at 10 uM concentration of compound dissolved in 100% DMSO using 5''-[gamma-33P]-triphosphate
[6] = target: T1, Tyrosine-protein kinase transforming protein Abl (Abelson murine leukemia virus) (UniProt P00521); experiment: In vitro percent inhibition of v-Abl tyrosine kinase at 10 uM concentration of compound dissolved in 100% DMSO using 5''-[gamma-33P]-triphosphate
T1 sequence (whole entry): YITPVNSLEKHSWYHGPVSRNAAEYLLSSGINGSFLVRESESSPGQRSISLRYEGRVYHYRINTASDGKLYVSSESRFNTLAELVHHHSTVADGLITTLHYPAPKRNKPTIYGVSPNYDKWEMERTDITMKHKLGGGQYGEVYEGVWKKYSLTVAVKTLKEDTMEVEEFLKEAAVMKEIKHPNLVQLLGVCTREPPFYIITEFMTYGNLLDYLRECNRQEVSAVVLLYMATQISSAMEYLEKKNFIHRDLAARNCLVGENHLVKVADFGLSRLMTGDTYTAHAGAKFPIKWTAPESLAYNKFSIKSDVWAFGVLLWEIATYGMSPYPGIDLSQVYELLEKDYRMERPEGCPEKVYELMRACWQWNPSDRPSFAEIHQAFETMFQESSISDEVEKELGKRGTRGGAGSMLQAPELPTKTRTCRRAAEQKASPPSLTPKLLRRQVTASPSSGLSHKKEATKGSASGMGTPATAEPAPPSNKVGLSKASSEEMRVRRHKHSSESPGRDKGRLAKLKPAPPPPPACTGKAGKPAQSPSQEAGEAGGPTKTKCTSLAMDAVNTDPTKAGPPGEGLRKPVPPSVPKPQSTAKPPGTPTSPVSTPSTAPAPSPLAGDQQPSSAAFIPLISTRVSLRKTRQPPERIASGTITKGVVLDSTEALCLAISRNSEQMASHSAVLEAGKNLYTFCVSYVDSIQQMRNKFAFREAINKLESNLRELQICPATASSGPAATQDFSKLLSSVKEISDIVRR

[7] = In vitro percent inhibition of Ribosomal S6 kinase 1 at 10 uM concentration of compound dissolved in 100% DMSO using 5''-[gamma-33P]-triphosphate
[8] = target: Rho-associated protein kinase 2 (Homo sapiens) (UniProt O75116); experiment: In vitro percent inhibition of Protein kinase ROCK2 at 10 uM concentration of compound dissolved in 100% DMSO using 5''-[gamma-33P]-triphosphate
[9] = In vitro percent inhibition of Cyclin-dependent kinase 2-cyclin A at 10 uM concentration of compound dissolved in 100% DMSO using 5''-[gamma-33P]-triphosphate
[10] = target: Mitogen-activated protein kinase 8 (Homo sapiens) (UniProt P45983); experiment: In vitro percent inhibition of c-Jun N-terminal kinase 1-alpha 1 at 10 uM concentration of compound dissolved in 100% DMSO using 5''-[gamma-33P]-triphosphate
[11] = target: T2, Inhibitor of nuclear factor kappa-B kinase subunit beta (Homo sapiens) (UniProt O14920); experiment: In vitro percent inhibition of I-kappa-B-kinase beta at 10 uM concentration of compound dissolved in 100% DMSO using 5''-[gamma-33P]-triphosphate
T2 sequence (whole entry): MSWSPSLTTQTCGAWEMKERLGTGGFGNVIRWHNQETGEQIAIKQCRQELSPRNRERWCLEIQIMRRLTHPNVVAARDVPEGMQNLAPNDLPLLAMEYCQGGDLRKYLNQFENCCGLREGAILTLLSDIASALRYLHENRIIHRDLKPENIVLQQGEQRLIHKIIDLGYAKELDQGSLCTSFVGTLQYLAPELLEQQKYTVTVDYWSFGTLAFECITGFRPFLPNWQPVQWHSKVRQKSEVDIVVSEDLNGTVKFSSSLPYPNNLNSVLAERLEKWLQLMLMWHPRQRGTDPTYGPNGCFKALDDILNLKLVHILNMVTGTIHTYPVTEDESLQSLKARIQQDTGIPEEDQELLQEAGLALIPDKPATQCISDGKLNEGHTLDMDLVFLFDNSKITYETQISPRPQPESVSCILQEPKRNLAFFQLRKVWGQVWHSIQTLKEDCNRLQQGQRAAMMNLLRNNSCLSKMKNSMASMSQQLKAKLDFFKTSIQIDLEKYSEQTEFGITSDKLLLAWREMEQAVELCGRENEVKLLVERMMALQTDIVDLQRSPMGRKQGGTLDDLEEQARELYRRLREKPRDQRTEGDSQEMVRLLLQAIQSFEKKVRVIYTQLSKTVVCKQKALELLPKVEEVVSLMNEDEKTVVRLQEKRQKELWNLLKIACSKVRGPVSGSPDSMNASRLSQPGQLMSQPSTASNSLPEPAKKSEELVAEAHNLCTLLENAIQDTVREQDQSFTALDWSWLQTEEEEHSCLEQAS

[12] = target: Mitogen-activated protein kinase 3 (Homo sapiens) (UniProt P27361); experiment: In vitro percent inhibition of Mitogen-activated protein kinase 3 at 10 uM concentration of compound dissolved in 100% DMSO using 5''-[gamma-33P]-triphosphate
[13] = target: Platelet-derived growth factor receptor beta (Homo sapiens) (UniProt P09619); experiment: In vitro percent inhibition of Platelet-derived growth factor receptor, beta polypeptide at 10 uM concentration of compound dissolved in 100% DMSO using 5''-[gamma-33P]-triphosphate
[14] = target: Ribosomal protein S6 kinase (P70S6K) (Homo sapiens) (UniProt Q9UBS0+P23443); experiment: In vitro percent inhibition of Ribosomal protein S6 kinase at 10 uM concentration of compound dissolved in 100% DMSO using 5''-[gamma-33P]-triphosphate; format: protein-complex assay
[15] = target: RAF proto-oncogene serine/threonine-protein kinase (Homo sapiens) (UniProt P04049); experiment: In vitro percent inhibition of RAF proto-oncogene serine/threonine-protein kinase at 10 uM concentration of compound dissolved in 100% DMSO using 5''-[gamma-33P]-triphosphate
[16] = target: Insulin receptor (Homo sapiens) (UniProt P06213); experiment: In vitro percent inhibition of Insulin receptor at 10 uM concentration of compound dissolved in 100% DMSO using 5''-[gamma-33P]-triphosphate
[17] = target: Mast/stem cell growth factor receptor Kit (Homo sapiens) (UniProt P10721); experiment: In vitro percent inhibition of v-kit Hardy-Zuckerman 4 feline sarcoma viral oncogene homolog at 10 uM concentration of compound dissolved in 100% DMSO using 5''-[gamma-33P]-triphosphate
[18] = target: Epidermal growth factor receptor (Homo sapiens) (UniProt P00533); settings: 10 uM
[19] = Partition coefficient (logP); format: physicochemical; settings: octanol/water
[20] = Inhibitory activity against Platelet-derived growth factor receptor kinase

Tyrosine-protein kinase Lck (Homo sapiens), sequence (P06239 2-509 limits assumed): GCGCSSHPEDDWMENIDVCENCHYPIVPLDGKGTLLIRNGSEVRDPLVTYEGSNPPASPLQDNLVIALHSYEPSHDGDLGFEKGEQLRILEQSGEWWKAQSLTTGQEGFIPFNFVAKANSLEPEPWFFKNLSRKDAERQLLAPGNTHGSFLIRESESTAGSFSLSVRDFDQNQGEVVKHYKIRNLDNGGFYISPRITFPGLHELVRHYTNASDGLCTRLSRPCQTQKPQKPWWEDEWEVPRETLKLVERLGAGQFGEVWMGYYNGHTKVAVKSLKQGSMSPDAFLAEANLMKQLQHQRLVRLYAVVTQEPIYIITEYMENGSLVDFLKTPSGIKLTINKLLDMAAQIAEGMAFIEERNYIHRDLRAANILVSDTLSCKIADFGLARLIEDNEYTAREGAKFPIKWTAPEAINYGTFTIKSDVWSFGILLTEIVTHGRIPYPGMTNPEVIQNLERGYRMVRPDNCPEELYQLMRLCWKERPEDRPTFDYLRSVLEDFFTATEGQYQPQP
Epidermal growth factor receptor (Homo sapiens), sequence (P00533 whole entry): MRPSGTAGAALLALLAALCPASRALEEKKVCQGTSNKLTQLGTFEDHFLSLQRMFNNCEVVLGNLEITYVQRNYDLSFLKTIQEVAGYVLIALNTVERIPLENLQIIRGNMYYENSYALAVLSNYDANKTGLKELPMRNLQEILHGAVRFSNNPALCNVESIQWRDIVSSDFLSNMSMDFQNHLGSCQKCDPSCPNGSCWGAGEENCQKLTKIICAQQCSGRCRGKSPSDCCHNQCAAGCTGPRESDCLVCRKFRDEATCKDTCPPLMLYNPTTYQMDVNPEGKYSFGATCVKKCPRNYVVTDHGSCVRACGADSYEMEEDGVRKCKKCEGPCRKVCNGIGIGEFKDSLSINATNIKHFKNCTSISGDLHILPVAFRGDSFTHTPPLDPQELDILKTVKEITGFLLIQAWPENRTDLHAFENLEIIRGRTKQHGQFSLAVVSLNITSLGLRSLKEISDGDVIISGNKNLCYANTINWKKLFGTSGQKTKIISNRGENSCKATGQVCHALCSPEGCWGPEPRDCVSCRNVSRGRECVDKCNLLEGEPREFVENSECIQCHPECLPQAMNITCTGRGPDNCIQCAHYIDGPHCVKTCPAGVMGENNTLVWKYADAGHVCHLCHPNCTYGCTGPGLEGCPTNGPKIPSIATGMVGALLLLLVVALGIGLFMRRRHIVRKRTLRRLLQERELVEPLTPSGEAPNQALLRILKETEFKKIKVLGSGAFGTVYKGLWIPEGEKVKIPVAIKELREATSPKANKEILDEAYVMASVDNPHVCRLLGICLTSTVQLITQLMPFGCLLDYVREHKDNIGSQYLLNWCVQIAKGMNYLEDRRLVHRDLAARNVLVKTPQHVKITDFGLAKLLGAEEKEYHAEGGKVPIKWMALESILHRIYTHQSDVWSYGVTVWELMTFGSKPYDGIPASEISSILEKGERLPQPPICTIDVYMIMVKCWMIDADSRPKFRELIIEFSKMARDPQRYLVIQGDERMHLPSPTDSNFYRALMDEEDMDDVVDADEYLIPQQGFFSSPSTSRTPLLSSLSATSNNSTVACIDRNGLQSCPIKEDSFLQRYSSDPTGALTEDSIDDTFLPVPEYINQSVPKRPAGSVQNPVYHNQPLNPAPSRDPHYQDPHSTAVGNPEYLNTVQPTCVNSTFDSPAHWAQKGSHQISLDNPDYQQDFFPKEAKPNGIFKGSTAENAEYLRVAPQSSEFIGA
Mitogen-activated protein kinase 8 (Homo sapiens), sequence (P45983 whole entry): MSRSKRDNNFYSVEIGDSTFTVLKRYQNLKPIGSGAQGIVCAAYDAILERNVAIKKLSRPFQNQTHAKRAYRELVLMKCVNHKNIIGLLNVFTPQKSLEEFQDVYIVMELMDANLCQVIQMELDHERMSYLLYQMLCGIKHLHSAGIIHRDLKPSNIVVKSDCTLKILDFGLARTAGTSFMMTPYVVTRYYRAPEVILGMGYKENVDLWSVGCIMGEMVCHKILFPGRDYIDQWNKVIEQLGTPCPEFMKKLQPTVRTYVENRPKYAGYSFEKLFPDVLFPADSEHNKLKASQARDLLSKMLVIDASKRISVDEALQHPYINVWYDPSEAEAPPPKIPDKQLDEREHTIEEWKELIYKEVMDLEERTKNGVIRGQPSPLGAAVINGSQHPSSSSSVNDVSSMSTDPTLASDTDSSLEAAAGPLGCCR
Casein kinase I isoform alpha (Homo sapiens), sequence (P48729 2-337 limits assumed): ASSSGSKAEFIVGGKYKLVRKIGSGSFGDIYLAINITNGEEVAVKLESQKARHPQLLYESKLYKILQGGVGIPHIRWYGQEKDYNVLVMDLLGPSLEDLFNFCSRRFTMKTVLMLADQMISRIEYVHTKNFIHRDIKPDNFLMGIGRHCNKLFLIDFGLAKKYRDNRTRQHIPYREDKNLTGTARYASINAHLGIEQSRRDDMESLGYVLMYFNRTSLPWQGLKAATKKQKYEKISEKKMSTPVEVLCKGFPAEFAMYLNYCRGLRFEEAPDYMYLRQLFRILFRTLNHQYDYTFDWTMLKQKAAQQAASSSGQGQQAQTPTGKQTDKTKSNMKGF
Rho-associated protein kinase 2 (Homo sapiens), sequence (O75116 whole entry, looked up): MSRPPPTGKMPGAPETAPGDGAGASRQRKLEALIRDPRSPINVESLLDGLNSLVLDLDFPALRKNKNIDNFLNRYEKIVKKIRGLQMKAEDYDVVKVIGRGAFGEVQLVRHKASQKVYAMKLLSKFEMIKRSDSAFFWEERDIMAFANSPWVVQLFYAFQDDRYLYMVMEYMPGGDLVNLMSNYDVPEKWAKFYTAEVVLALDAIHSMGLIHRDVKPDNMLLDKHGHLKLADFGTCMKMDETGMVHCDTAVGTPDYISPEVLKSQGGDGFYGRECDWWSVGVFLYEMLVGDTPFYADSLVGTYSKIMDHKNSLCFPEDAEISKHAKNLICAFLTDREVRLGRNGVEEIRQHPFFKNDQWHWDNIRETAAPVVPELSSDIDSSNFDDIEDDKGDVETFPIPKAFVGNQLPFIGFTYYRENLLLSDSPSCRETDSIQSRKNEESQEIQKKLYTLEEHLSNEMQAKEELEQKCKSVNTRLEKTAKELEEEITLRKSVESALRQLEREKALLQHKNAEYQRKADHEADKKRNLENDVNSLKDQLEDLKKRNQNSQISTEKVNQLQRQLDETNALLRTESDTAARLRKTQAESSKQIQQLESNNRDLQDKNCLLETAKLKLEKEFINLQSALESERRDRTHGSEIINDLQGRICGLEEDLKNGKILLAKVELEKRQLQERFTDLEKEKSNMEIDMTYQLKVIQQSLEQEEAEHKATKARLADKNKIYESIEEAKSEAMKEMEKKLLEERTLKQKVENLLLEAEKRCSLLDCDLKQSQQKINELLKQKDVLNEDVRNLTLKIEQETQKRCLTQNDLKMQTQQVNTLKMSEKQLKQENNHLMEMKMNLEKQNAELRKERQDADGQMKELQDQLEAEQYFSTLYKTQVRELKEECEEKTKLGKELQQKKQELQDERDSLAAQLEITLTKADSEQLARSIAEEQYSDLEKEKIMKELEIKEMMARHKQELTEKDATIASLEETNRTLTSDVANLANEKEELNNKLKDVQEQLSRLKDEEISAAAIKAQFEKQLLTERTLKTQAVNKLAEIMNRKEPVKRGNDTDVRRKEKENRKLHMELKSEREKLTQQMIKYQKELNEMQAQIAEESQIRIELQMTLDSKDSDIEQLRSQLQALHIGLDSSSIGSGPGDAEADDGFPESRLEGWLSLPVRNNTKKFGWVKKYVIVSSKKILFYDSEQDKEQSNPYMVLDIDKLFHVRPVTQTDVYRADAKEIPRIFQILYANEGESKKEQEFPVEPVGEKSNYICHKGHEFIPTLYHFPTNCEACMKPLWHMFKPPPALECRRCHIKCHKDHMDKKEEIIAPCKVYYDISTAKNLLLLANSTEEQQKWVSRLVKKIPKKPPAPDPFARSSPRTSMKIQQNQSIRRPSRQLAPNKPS
Mast/stem cell growth factor receptor Kit (Homo sapiens), sequence (P10721 whole entry): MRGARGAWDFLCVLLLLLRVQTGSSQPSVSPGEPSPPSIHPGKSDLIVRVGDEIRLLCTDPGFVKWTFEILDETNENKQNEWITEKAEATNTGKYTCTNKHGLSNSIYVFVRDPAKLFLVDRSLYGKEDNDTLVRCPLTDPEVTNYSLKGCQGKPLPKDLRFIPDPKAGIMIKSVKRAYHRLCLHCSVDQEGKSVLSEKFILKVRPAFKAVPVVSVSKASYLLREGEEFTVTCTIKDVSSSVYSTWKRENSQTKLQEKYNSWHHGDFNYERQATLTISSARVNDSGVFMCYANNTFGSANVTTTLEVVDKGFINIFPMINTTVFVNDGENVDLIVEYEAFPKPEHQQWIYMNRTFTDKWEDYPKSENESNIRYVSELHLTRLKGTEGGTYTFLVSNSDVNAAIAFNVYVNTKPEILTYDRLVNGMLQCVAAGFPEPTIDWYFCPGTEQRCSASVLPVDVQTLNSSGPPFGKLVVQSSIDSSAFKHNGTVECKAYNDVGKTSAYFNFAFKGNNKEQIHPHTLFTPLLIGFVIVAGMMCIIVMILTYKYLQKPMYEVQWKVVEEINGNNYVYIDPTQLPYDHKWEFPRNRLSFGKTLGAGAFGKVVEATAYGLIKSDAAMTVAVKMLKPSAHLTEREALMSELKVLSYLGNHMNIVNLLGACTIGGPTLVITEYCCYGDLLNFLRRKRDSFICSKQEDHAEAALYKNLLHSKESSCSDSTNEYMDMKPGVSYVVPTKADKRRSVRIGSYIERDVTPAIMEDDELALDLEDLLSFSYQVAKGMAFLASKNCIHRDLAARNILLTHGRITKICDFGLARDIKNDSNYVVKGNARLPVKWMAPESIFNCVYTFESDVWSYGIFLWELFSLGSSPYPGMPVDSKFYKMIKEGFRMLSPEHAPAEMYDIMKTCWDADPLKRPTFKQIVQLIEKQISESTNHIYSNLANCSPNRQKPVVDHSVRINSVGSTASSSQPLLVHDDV

## c1csc(-c2nc3cc4c(cc3nc2-c2cccs2)OCCCO4)c1
[1]
  inhibition: -5%
[2]
  inhibition: 27%
[3]
  inhibition: 75%
[4]
  IC50: Not Active
[5]
  inhibition: 39%
[6]
  inhibition: 10%
[7]
  inhibition: 17%
[8]
  inhibition: 32%
[9]
  inhibition: -7%
[10]
  inhibition: 15%
[11]
  inhibition: 22%
[12]
  inhibition: 21%
[13]
  inhibition: 24%
[14]
  inhibition: 2%
[15]
  inhibition: -5%
[16]
  inhibition: 34%
[17]
  inhibition: 22%
[18]
  inhibition: 26%
[19]
  logP: 5

## c1ccc(-c2cnc3cc4ccccc4cc3n2)cc1
[20]
  IC50: 900 nM

— ChEMBL document CHEMBL1140238, “Synthesis of selective SRPK-1 inhibitors: novel tricyclic quinoxaline derivatives” (Bioorg Med Chem Lett, 2005)
